Experimental data from the NIST ThermoML archive (doi:10.1021/je050498q).

Experiment: refractive index (Na D-line) (dimensionless); wn = mass fraction of the nth substance listed
Settings: 101 kPa, Liquid

O=C([O-])[C@H](O)[C@@H](O)C(=O)[O-].[Na+].[Na+] [disodium L-tartrate] + O
refractive index
Settings | 298.15 K | 308.15 K | 318.15 K
w1 = 0.0099 | 1.3343 | 1.3331 | 1.3318
w1 = 0.0192 | 1.336 | 1.3346 | 1.3335
w1 = 0.0282 | 1.3373 | 1.3363 | 1.3351
w1 = 0.0371 | 1.3389 | 1.3378 | 1.3367
w1 = 0.046 | 1.3405 | 1.3393 | 1.3381
w1 = 0.0547 | 1.3418 | 1.3408 | 1.3396
w1 = 0.0625 | 1.3432 | 1.3421 | 1.341
w1 = 0.0714 | 1.3447 | 1.3435 | 1.3425
w1 = 0.0793 | 1.346 | 1.3449 | 1.3439
w1 = 0.0872 | 1.3475 | 1.3462 | 1.3452
w1 = 0.0948 | 1.3486 | 1.3475 | 1.3464
w1 = 0.1026 | 1.3502 | 1.3488 | 1.3479
w1 = 0.1098 | 1.3511 | 1.35 | 1.349
w1 = 0.1169 | 1.3526 | 1.3512 | 1.3502
w1 = 0.1223 | 1.3535 | 1.3523 | 1.3513
w1 = 0.1314 | 1.3551 | 1.3537 | 1.3526
w1 = 0.1361 | 1.3557 | 1.3545 | 1.3536
w1 = 0.1437 | 1.3572 | 1.356 | 1.3548
w1 = 0.1514 | 1.3584 | 1.3572 | 1.3562
w1 = 0.1577 | 1.3594 | 1.3582 | 1.3573
w1 = 0.1646 | 1.3607 | 1.3596 | 1.3587
w1 = 0.1697 | 1.3616 | 1.3606 | 1.3595
w1 = 0.1769 | 1.363 | 1.3617 | 1.3607
w1 = 0.1825 | 1.3639 | 1.3627 | 1.3616
w1 = 0.1886 | 1.3649 | 1.3637 | 1.3627
w1 = 0.1941 | 1.366 | 1.3646 | 1.3636
w1 = 0.1996 | 1.3668 | 1.3655 | 1.3644
w1 = 0.2048 | 1.3677 | 1.3664 | 1.3654
w1 = 0.2116 | 1.3689 | 1.3675 | 1.3666
w1 = 0.2167 | 1.3697 | 1.3685 | 1.3675
w1 = 0.2221 | 1.3707 | 1.3696 | 1.3684
w1 = 0.2281 | 1.3719 | 1.3707 | 1.3695
w1 = 0.2328 | 1.3728 | 1.3715 | 1.3703
w1 = 0.243 | 1.3744 | 1.3731 | 1.372
w1 = 0.2493 | 1.3755 | 1.3744 | 1.3732
w1 = 0.2577 | 1.377 | 1.3759 | 1.3749
w1 = 0.2622 | 1.3778 | 1.3765 | 1.3757
w1 = 0.2681 | 1.379 | 1.3777 | 1.3765
w1 = 0.2757 | 1.3802 | 1.3791 | 1.3778
w1 = 0.2859 | 1.3821 | 1.3809 | 1.3798
w1 = 0.2979 | 1.384 | 1.3829 | 1.3819
w1 = 0.3085 | 1.3861 | 1.3848 | 1.3841
